What all share (format): functional, cell-based
One assay relates to MDA-MB-231. Nature of the assay: Antiproliferative activity against human MDA-MB-231 cells assessed as inhibition of cell growth measured after 48 hrs by MTT assay. The following applies: MDA-MB-231, 48 h.
The test system of a further assay is B16-F10. Nature of the assay: Antiproliferative activity against mouse B16-F10 cells assessed as inhibition of cell growth measured after 48 hrs by MTT assay. The following applies: B16-F10, 48 h. (In general: Tetrazolium assays rely on reduction of a dye to a coloured formazan, in cell work by metabolically active cells.)
The next assay relates to HepG2. Nature of the assay: Antiproliferative activity against human HepG2 cells assessed as inhibition of cell growth measured after 48 hrs by MTT assay. The following applies: HepG2, 48 h.
A further assay deals with HeLa. Nature of the assay: Antiproliferative activity against human HeLa cells assessed as inhibition of cell growth measured after 48 hrs by MTT assay.
In the next assay the test system is SK-OV-3. Nature of the assay: Antiproliferative activity against human SK-OV-3 cells assessed as inhibition of cell growth measured after 48 hrs by MTT assay. The following applies: SK-OV-3, 48 h.
In the next assay the test system is A549. Description: Antiproliferative activity against human A549 cells assessed as inhibition of cell growth measured after 48 hrs by MTT assay. The following applies: A549, 48 h.

Take `CCOc1cccc(Nc2cc(Nc3cccc(NC(=O)C4CC4)c3)ncn2)c1`: the IC50 in the assay with MDA-MB-231 was found to be 1.9 nM; with B16-F10 it was 20.7 nM; in the assay with HepG2, 128 nM; with HeLa it was 613 nM; in the assay with SK-OV-3, 17.4 nM; with A549 it was 173 nM.

With `COc1ccc(C)c(Nc2cc(Nc3cccc(NC(=O)C4CC4)c3)ncn2)c1`, the IC50 in the assay on MDA-MB-231 was found to be 48.8 nM; with B16-F10, 2.3 nM; in the assay on HepG2, 35.2 nM; in the assay with HeLa it was 17.9 nM; in the assay on SK-OV-3, 56.9 nM; in the assay with A549, 2 nM.

With `COc1cc(Nc2cc(Nc3cccc(NC(=O)C4CC4)c3)ncn2)ccc1Cl`, the concentration for half-maximal inhibition (IC50) in the assay on MDA-MB-231 worked out at 356 nM; with B16-F10 it was 472 nM; with HepG2, 374 nM; in the assay on HeLa, 397 nM; in the assay with SK-OV-3, 811 nM; in the assay with A549, 547 nM.

`COc1cccc(Nc2cc(Nc3cccc(NS(=O)(=O)C4CCCCC4)c3)ncn2)c1`: the concentration for half-maximal inhibition (IC50) is over 1000 nM in the assay with MDA-MB-231; over 1000 nM in the assay with B16-F10; over 1000 nM in the assay with HepG2; over 1000 nM in the assay with HeLa; 286 nM in the assay with SK-OV-3; over 1000 nM with A549.

In the case of `COc1cccc(Oc2cc(Nc3cccc(NC(=O)C4CC4)c3)ncn2)c1`, the half-maximal inhibitory concentration (IC50) in the assay on MDA-MB-231 was 155 nM; in the assay on B16-F10, 83.9 nM; in the assay with HepG2, 22.8 nM; with HeLa, 475 nM; in the assay with SK-OV-3, 68.6 nM; in the assay with A549, 68.3 nM.

Regarding `COc1cccc(Nc2nc(Nc3cccc(NC(=O)C4CC4)c3)nc3sccc23)c1`, the IC50 in the assay on MDA-MB-231, with B16-F10, in the assay with HepG2, in the assay with HeLa, in the assay on SK-OV-3 and in the assay with A549 was over 1000 nM throughout.

On to `COc1cccc(Nc2cc(Nc3cccc(C(=O)NC4CCCCC4)c3)ncn2)c1`, for which the half-maximal inhibitory concentration (IC50) with MDA-MB-231, in the assay with B16-F10, in the assay on HepG2, in the assay on HeLa, with SK-OV-3 and in the assay on A549 was over 1000 nM each time.

In the case of `COc1cccc(Nc2cc(Nc3cccc(C(=O)NC4CCCC4)c3)ncn2)c1`, the half-inhibitory concentration (IC50) in the assay with MDA-MB-231, with B16-F10, in the assay on HepG2, with HeLa, with SK-OV-3 and in the assay with A549 was over 1000 nM in each case.

With `COc1cccc(Nc2cc(Nc3cccc(NC(=O)C4CCCCC4)c3)ncn2)c1`, the IC50 in the assay on MDA-MB-231 is over 1000 nM; in the assay with B16-F10 it was 315 nM; in the assay with HepG2 it was 166 nM; with HeLa, 52.5 nM; in the assay on SK-OV-3, 23.6 nM; with A549 it was 83.2 nM.

As to `O=C(Nc1cccc(Nc2cc(Nc3cccc(C(F)F)c3)ncn2)c1)C1CC1`, the IC50 came to 38.7 nM with MDA-MB-231; 61.3 nM in the assay with B16-F10; 15.6 nM in the assay on HepG2; 48.5 nM with HeLa; 2.1 nM in the assay on SK-OV-3; 9.3 nM in the assay with A549.

Turning to `Cc1cccc2c1CCN2c1cc(Nc2cccc(NC(=O)C3CC3)c2)ncn1`, the IC50 with MDA-MB-231, in the assay with B16-F10, in the assay on HepG2, in the assay with HeLa, with SK-OV-3 and in the assay on A549 was over 1000 nM each time.

Consider `COc1cccc(Nc2nc(Nc3cccc(NC(=O)C4CC4)c3)nc3ccsc23)c1`, for which the IC50 in the assay on MDA-MB-231 was 610 nM; with B16-F10 it was over 1000 nM; in the assay on HepG2, over 1000 nM; in the assay with HeLa it was over 1000 nM; in the assay with SK-OV-3 it was over 1000 nM; in the assay on A549, over 1000 nM.

Take `O=C(Nc1cccc(Nc2nc(Nc3cccc(C(F)(F)F)c3)nc3ccccc23)c1)C1CC1`: the 50% inhibitory concentration (IC50) in the assay with MDA-MB-231, with B16-F10, in the assay with HepG2, in the assay with HeLa, with SK-OV-3 and with A549 was over 1000 nM throughout.

With `O=C(Nc1cncc(Nc2cc(Nc3cccc(C(F)(F)F)c3)ncn2)c1)C1CC1`, the IC50 with MDA-MB-231, in the assay on B16-F10, in the assay with HepG2, in the assay on HeLa, with SK-OV-3 and with A549 was over 1000 nM throughout.

As to `COc1cccc(Nc2nc(Nc3cccc(NC(=O)C4CC4)c3)nc3ccccc23)c1`, the IC50 is 122 nM with MDA-MB-231; 172 nM in the assay on B16-F10; over 1000 nM in the assay with HepG2; over 1000 nM with HeLa; 864 nM with SK-OV-3; over 1000 nM with A549.

`O=C(NCCCNc1cc(Nc2cccc(C(F)(F)F)c2)ncn1)C1CC1`: the IC50 in the assay with MDA-MB-231, with B16-F10, with HepG2, in the assay with HeLa, in the assay with SK-OV-3 and in the assay with A549 was over 1000 nM each time.

Turning to `COc1cccc(Nc2nc(Nc3cccc(NC(=O)C4CC4)c3)c3ccsc3n2)c1`, the IC50 in the assay with MDA-MB-231, in the assay on B16-F10, in the assay with HepG2, in the assay on HeLa, with SK-OV-3 and in the assay with A549 was over 1000 nM each time.

As for `COc1cccc(Nc2cc(Nc3ccc(NC(=O)C4CC4)cc3)ncn2)c1`, the 50% inhibitory concentration (IC50) with MDA-MB-231, with B16-F10, in the assay on HepG2, in the assay on HeLa, in the assay on SK-OV-3 and in the assay with A549 was over 1000 nM each time.

For the compound `COc1cccc(Nc2cc(Nc3cccc(NC(=O)C4CC4)c3)nc(C)n2)c1`, the concentration for half-maximal inhibition (IC50) was over 1000 nM in the assay on MDA-MB-231; 9.6 nM with B16-F10; 93.2 nM in the assay on HepG2; 120 nM in the assay on HeLa; 156 nM in the assay on SK-OV-3; over 1000 nM in the assay with A549.

As to `Cc1nc(Nc2cccc(NC(=O)C3CC3)c2)cc(Nc2cccc(C(F)(F)F)c2)n1`, the IC50 with MDA-MB-231 is over 1000 nM; with B16-F10 it was 562 nM; with HepG2 it was 64.1 nM; in the assay on HeLa, over 1000 nM; with SK-OV-3, 123 nM; in the assay with A549, over 1000 nM.

For `CCC(=O)Nc1cccc(Nc2cc(Nc3cccc(OC)c3)ncn2)c1`, the half-inhibitory concentration (IC50) was over 1000 nM in the assay with MDA-MB-231; 392 nM in the assay with B16-F10; 99.3 nM in the assay on HepG2; 6.7 nM in the assay with HeLa; 14.1 nM in the assay on SK-OV-3; 273 nM in the assay with A549.

As for `COc1cccc(Nc2cc(Nc3cccc(OC)c3)ncn2)c1`, the half-maximal inhibitory concentration (IC50) in the assay on MDA-MB-231, with B16-F10, with HepG2, in the assay with HeLa, in the assay with SK-OV-3 and in the assay on A549 was over 1000 nM each time.

With `Cc1cc(NC(=O)C2CC2)cc(Nc2cc(Nc3cccc(C(F)(F)F)c3)ncn2)c1`, the concentration for half-maximal inhibition (IC50) in the assay with MDA-MB-231 is over 1000 nM; in the assay on B16-F10, 443 nM; with HepG2, 201 nM; in the assay with HeLa, 499 nM; with SK-OV-3, 31.7 nM; with A549, over 1000 nM.

As for `O=C(Nc1cccc(Nc2cc(N3CCOc4ccccc43)ncn2)c1)C1CC1`, the 50% inhibitory concentration (IC50) is 563 nM in the assay with MDA-MB-231; over 1000 nM in the assay on B16-F10; 34.8 nM in the assay with HepG2; 349 nM in the assay on HeLa; 84.2 nM in the assay on SK-OV-3; over 1000 nM in the assay with A549.

As to `O=C(Nc1cccc(Nc2nc(Nc3cccc(C(F)(F)F)c3)nc3sccc23)c1)C1CC1`, the half-maximal inhibitory concentration (IC50) in the assay on MDA-MB-231, in the assay on B16-F10, in the assay on HepG2, in the assay with HeLa, in the assay with SK-OV-3 and with A549 was over 1000 nM throughout.

On to `Cc1c(F)cccc1Nc1cc(Nc2cccc(NC(=O)C3CC3)c2)ncn1`, for which the IC50 with MDA-MB-231 is 23.4 nM; in the assay with B16-F10 it was 17.8 nM; in the assay with HepG2 it was 429 nM; in the assay on HeLa, 62.2 nM; in the assay with SK-OV-3 it was 31.6 nM; with A549, 27.9 nM.

For the compound `COc1cccc(Nc2cc(Nc3cccc(NC(=O)C(C)(C)C)c3)ncn2)c1`, the half-inhibitory concentration (IC50) in the assay with MDA-MB-231, in the assay on B16-F10, in the assay on HepG2, in the assay on HeLa, with SK-OV-3 and with A549 was over 1000 nM each time.

For the compound `O=C(Nc1cccc(Nc2cc(N3CCc4ccccc43)ncn2)c1)C1CC1`, the concentration for half-maximal inhibition (IC50) with MDA-MB-231, in the assay on B16-F10, in the assay on HepG2, with HeLa, in the assay on SK-OV-3 and in the assay with A549 was over 1000 nM in each case.

Take `COc1cc(Nc2cc(Nc3cccc(NC(=O)C4CC4)c3)ncn2)ccc1F`: the IC50 in the assay with MDA-MB-231 is 107 nM; in the assay on B16-F10, 199 nM; with HepG2, 342 nM; in the assay with HeLa, 65.9 nM; in the assay on SK-OV-3, 42.7 nM; in the assay with A549, 218 nM.

Regarding `O=C(Nc1cccc(Nc2nc(Nc3cccc(C(F)(F)F)c3)c3sccc3n2)c1)C1CC1`, the 50% inhibitory concentration (IC50) in the assay on MDA-MB-231, in the assay on B16-F10, in the assay on HepG2, in the assay with HeLa, with SK-OV-3 and with A549 was over 1000 nM each time.

Take `O=C(Nc1cccc(Nc2nc(Nc3cccc(C(F)(F)F)c3)c3ccccc3n2)c1)C1CC1`: the 50% inhibitory concentration (IC50) in the assay with MDA-MB-231, in the assay on B16-F10, in the assay with HepG2, in the assay on HeLa, in the assay on SK-OV-3 and with A549 was over 1000 nM throughout.

For `COc1cccc(Nc2nc(Nc3cccc(NC(=O)C4CC4)c3)c3sccc3n2)c1`, the half-maximal inhibitory concentration (IC50) with MDA-MB-231, in the assay on B16-F10, in the assay with HepG2, with HeLa, in the assay on SK-OV-3 and with A549 was over 1000 nM in each case.

As usually defined, the IC50 is the midpoint of a concentration-inhibition curve.
